Measured values reported in patent US20240392241A1, “METHOD FOR PRODUCING CELL MASS INCLUDING PITUITARY TISSUE AND CELL MASS” (SUMITOMO CHEMICAL COMPANY, LIMITED, priority 2021, published 2024).
Ends that are not written are not given here.

Experiments:
Format in all cases: cell-based
[1] = test system: cell aggregates containing pituitary tissue from human ES cells (KhES-1 strain); assay: ACTH stimulation/suppression test by CRH or dexamethasone in cell aggregates containing pituitary tissue (Example 14); settings: 24 hr, cell aggregates on day 103
Description: Cell aggregates containing pituitary tissue were produced in the same manner as in Example 10, and ACTH secretory capacity was studied. 20 cell aggregates with different numbers of culture days after the start of suspension culturing were transferred to a 10 cm suspension culture dish containing 10 mL of serum-free medium supplemented with 20% KSR, and after culturing for 3-4 days at 37° C., the culture supernatant was recovered. The ACTH concentration in the recovered culture supernatant was measured by the ELISA method used in clinical testing (testing outsourced to SRL, Ltd.). As a result, ACTH secretion was observed from day 29 after the start of suspension culturing (23 pg/mL), and the amount of ACTH secretion increased remarkably as the number of days of culture increased (FIG. 17A).
Then, it was studied whether an increase in ACTH secretion by CRH and suppression of ACTH secretion by glucocorticoid were observed. Specifically, 20 cell aggregates on day 103 after the start of suspension culturing were transferred to a 10 cm suspension culture dish containing 10 mL of serum-free medium supplemented with 20% KSR, and after culturing for 24 hr under conditions of 37° C., […], the culture supernatant was recovered. […] The ACTH concentration in the recovered culture supernatant was measured as described above. […]

[2] = test system: human ES cells (KhES-1 strain); assay: Concentration of IWP2, BMP4 and SAG, ACTH concentration in culture medium (Reference Example 3); settings: combination: low (IWP2 0.5 μM, BMP4 0.5 nM, SAG 700 nM) vs high (IWP2 2 μM, BMP4 5 nM, SAG 2 μM); days 61-250
Description: Then, for the purpose of examining the optimal concentrations of IWP2, BMP4, and SAG to be added in each step, two groups of a high concentration group (IWP2; 2 μM, BMP4; 5 nM, SAG; 2 μM) and a low concentration group (IWP2; 0.5 μM, BMP4; 0.5 nM, SAG; 700 nM) were established, and a comparative study was conducted using the ACTH concentration in the culture medium on days 61, 103, 152, 201, and 250 of differentiation induction as an indicator. Using human ES cells (KhES-1 strain) and according to step shown in FIG. 9A, a cell population including cells that constitute pituitary tissue was produced. Using the method described in Example 4, the concentration of ACTH in the medium was measured.

[3] = test system: human ES cells (RAX::Venus knock-in KhES-1 strain); assay: Addition period of IWP2, SB431542 and BMP4, immunostaining of PITX1, LHX3, E-cadherin on day 29 (Reference Example 2); settings: IWP2 (2 μM) and SB431542 (1 μM) added day 0 to day 29 and BMP4 (5 nM) day 2 to day 6, vs other addition periods
Description: After performing step a, suspension culturing was performed in a medium containing a Wnt signal inhibitor IWP2 (2 μM) and a TGFβ signal inhibitor SB431542 (1 μM) in addition to BMP4 (5 nM) and SAG (100 nM (step (1)) or 2 μM (step (2)). IWP2 and SB431542 were added during the period from day 0 to day 6 after the start of suspension culturing (FIG. 8B-1), from day 0 to day 12 after the start of suspension culturing (FIG. 8B-2), or from day 0 to day 29 after the start of suspension culturing (FIG. 8B-3). BMP4 was added during the period from day 2 to day 6 after the start of suspension culturing (upper panel of each of FIGS. 8B-1 to -3) or from day 2 to day 18 after the start of suspension culturing (lower panel of each of FIGS. 8B-1 to -3). Using cell aggregates on day 29 after the start of suspension culturing, cryosections were prepared in the same manner as in Example 3. These cryosections were subjected to immunostaining using PITX1 (anti-Pitx1 antibody, homemade) and antibody against epithelial cell marker E-cadherin (manufactured by Takara Bio Inc.). As a result, it was confirmed that the outside of the aggregate was a nonneural epithelial tissue that was positive for PITX1 and E-cadherin, and the inside was a neural epithelial tissue that was positive for RAX::Venus (FIGS. 8B-1 to -3).
The scale bar at the bottom right of FIGS. 8B-1 to -3 indicates 200 μm.

[4] = test system: human iPS cell line 1231A3; assay: Effect of substance reducing oxidative stress on pituitary organoid production, bright field observation (Example 6); settings: 1 mM from day 10; day 30 of differentiation induction
[5] = test system: human iPS cells (201B7 strain); assay: SAG addition period and ACTH secretion capacity of cell aggregates (Example 9); settings: stopping SAG treatment 30 days after start of differentiation induction vs continued SAG treatment
Description: Using human iPS cells (201B7 strain) and according to the steps shown in FIG. 12A, cell aggregates were produced. Regarding the SAG treatment period, two groups of a group in which SAG is added from immediately after the start of differentiation induction until day 30, and a group in which SAG is added from immediately after the start of differentiation induction and after day 30 (until day 61, until day 103, and until day 131) were set, and the ACTH secretion capacity was compared. ACTH was measured by a method similar to that in Example 4.

[6] = test system: human iPS cells (1231A3 strain); assay: Timing of BMP4 addition under JNK inhibitor addition conditions, oblique illumination observation (Example 17); settings: BMP4 added after 24 hr (day 1) vs about 48 hr (day 2); JNK inhibitor present; day 28
Description: In Example 17, a cell population containing cells constituting pituitary tissue was produced according to the steps shown in FIG. 20A. Specifically, human iPS cells (1231A3 strain, obtained from RIKEN) were cultured under feeder-free conditions according to the method described in Scientific Reports, 4, 3594 (2014). As the feeder-free medium, StemFit medium was used and, as the feeder-free scaffold, Laminin 511-E8 was used.
Differentiation induction was performed under the same conditions as in Example 1, except that the addition conditions of BMP4 and the final concentration of IWP-2 were changed to 1 μM. As a condition for adding BMP4, step (2) was performed about 24 hr (day 1) and about 48 hr (day 2) after the start of differentiation induction.
On day 28 after the start of suspension culturing, oblique illumination observation was performed using an inverted fluorescence microscope (BIOREVO BZ-X800, manufactured by Keyence Corporation) (FIG. 20B). As a result, pituitary organoid with placode-like pituitary tissue observed as a thick, highly transparent epithelium on the surface of the cell mass was formed, under both BMP4 addition conditions of about 24 hr (day 1) and about 48 hr (day 2) after the start of differentiation induction. […]

Molecule | ACTH concentration in the culture medium, low concentration group vs high concentration group [2] | formation of PITX1-positive and E-cadherin-positive nonneural epithelial tissue [3] | further results
C[C@@H]1C[C@H]2[C@@H]3CCC4=CC(=O)C=C[C@]4(C)[C@@]3(F)[C@@H](O)C[C@]2(C)[C@@]1(O)C(=O)CO [DX, dexamethasone] | – | – | reduction of the amount of ACTH secretion ([1]; 500 ng/mL): about 40%
Cc1ccc2nc(NC(=O)CSc3nc4c(c(=O)n3-c3ccccc3)SCC4)sc2c1 [IWP2, N-(6-Methyl-2-benzothiazolyl)-2-[(3,4,6,7-tetrahydro-4-oxo-3-phenylthieno[3,2-d]pyrimidin-2-yl)thio]acetamide] | higher | highest probability | –
CC(=O)N[C@@H](CS)C(=O)O [NAC, N-acetylcysteine] | – | – | cell masses smaller in diameter than in the non-addition conditions [4]: about 50 μm; proliferation of unintended cells [4]: suppressed
CNC1CCC(N(Cc2cccc(-c3ccncc3)c2)C(=O)c2sc3ccccc3c2Cl)CC1 (stereo not drawn) [SAG, N-Methyl-N′-(3-pyridinylbenzyl)-N′-(3-chlorobenzo[b]thiophene-2-carbonyl)-1,4-diaminocyclohexane] | higher | – | ACTH secretion capacity [5]: improved
NC(=O)c1ccc(-c2nc(-c3ccc4c(c3)OCO4)c(-c3ccccn3)[nH]2)cc1 [SB431542, 4-[4-(3,4-Methylenedioxyphenyl)-5-(2-pyridyl)-1H-imidazol-2-yl]benzamide] | – | highest probability | –
CRH: CRH (manufactured by Nipro ES Pharma) used to stimulate ACTH secretion (SEEPPISLDLTFHLLREVLEMARAEQLAQQAHSNRKLMEII; ends and bridges not checked; UniProt P06850 154-194, looked up) | – | – | increase of ACTH secretion amount ([1]; 5 μg/mL): about 3 times
BMP4: BMP signal transduction pathway activating substance (protein, UniProt P12644 293-408, looked up) Bone morphogenetic protein 4: SPKHHSQRARKKNKNCRRHSLYVDFSDVGWNDWIVAPPGYQAFYCHGDCPFPLADHLNSTNHAIVQTLVNSVNSSIPKACCVPTELSAISMLYLDEYDKVVLKNYQEMVVEGCGCR | higher | highest probability | size of the pituitary organoids formed [6]: more uniform
